Experiments:
Experiment in all cases: relative viability (nuclei count vs DMSO), 5 days (fraction); higher = more cells survive
Bicalutamide + Dasatinib = compound: CC(O)(CS(=O)(=O)c1ccc(F)cc1)C(=O)Nc1ccc(C#N)c(C(F)(F)F)c1 [Bicalutamide] + Cc1nc(Nc2ncc(C(=O)Nc3c(C)cccc3Cl)s2)cc(N2CCN(CCO)CC2)n1 [Dasatinib] (partner 0.075 µM)
Summary of the method: (§1)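 Five library-drug doses in √10 steps were combined with a fixed anchor-drug dose, or a single drug was given alone, by pin tool to lung cancer cell lines in 1536-well plates the day after seeding. Nuclei were stained and counted after 5 days. Relative viability is the nuclei count in treated wells over that in vehicle wells, taken as the median of duplicate plates.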

[1] = compound: CC(O)(CS(=O)(=O)c1ccc(F)cc1)C(=O)Nc1ccc(C#N)c(C(F)(F)F)c1 [Bicalutamide] + CCNC(=O)c1noc(-c2cc(C(C)C)c(O)cc2O)c1-c1ccc(CN2CCOCC2)cc1 [Luminespib] (partner 0.01 µM)
Summary of the method: as §1

[2] = compound: C(C(=O)C(=O)O)Br [Bromopyruvate] + CC(C)C[C@H](NC(=O)[C@H](Cc1ccccc1)NC(=O)c1cnccn1)B(O)O [Bortezomib] (partner 0.002 µM)
Summary of the method: as §1

[3] = compound: C(C(=O)C(=O)O)Br [Bromopyruvate] + Nc1ncn([C@H]2C[C@H](O)[C@@H](CO)O2)c(=O)n1 [Decitabine] (partner 2 µM)
Summary of the method: as §1

PC-3 [JPC-3] showed a relative viability (Bicalutamide + Dasatinib; first compound 0.08 µM) of 1.04, a relative viability (Bicalutamide + Dasatinib; first compound 0.253 µM) of 0.946 and a relative viability (Bicalutamide + Dasatinib; first compound 0.8 µM) of 1.05. It also gave a relative viability (Bicalutamide + Dasatinib; first compound 2.53 µM) of 0.947, a relative viability ([1]; first compound 0.08 µM) of 0.665 and a relative viability ([1]; first compound 0.253 µM) of 0.659. It also gave a relative viability ([1]; first compound 0.8 µM) of 0.667, a relative viability ([1]; first compound 2.53 µM) of 0.734 and a relative viability ([2]; first compound 1 µM) of 0.796. It also gave a relative viability ([2]; first compound 3.162 µM) of 0.74, a relative viability ([2]; first compound 10 µM) of 0.832 and a relative viability ([2]; first compound 31.62 µM) of 0.785. The relative viability ([2]; first compound 100 µM) was 0.856, the relative viability ([3]; first compound 1 µM) was 0.866 and the relative viability ([3]; first compound 10 µM) was 0.91. It also gave a relative viability ([3]; first compound 100 µM) of 0.738.
In the case of PC-14, the relative viability (Bicalutamide + Dasatinib; first compound 0.08 µM) is reported as 0.263, the relative viability (Bicalutamide + Dasatinib; first compound 0.253 µM) is reported as 0.223 and the relative viability (Bicalutamide + Dasatinib; first compound 0.8 µM) is reported as 0.264. For the same cell line, the relative viability (Bicalutamide + Dasatinib; first compound 2.53 µM) was 0.18, the relative viability ([1]; first compound 0.08 µM) was 0.16 and the relative viability ([1]; first compound 0.253 µM) was 0.148. It also gave a relative viability ([1]; first compound 0.8 µM) of 0.198, a relative viability ([1]; first compound 2.53 µM) of 0.137 and a relative viability ([2]; first compound 1 µM) of 0.958. The relative viability ([2]; first compound 3.162 µM) was 0.873, the relative viability ([2]; first compound 10 µM) was 0.883 and the relative viability ([2]; first compound 31.62 µM) was 1. It also gave a relative viability ([2]; first compound 100 µM) of 0.912, a relative viability ([3]; first compound 1 µM) of 0.226 and a relative viability ([3]; first compound 3.162 µM) of 0.229. For the same cell line, the relative viability ([3]; first compound 10 µM) was 0.204, the relative viability ([3]; first compound 31.62 µM) was 0.262 and the relative viability ([3]; first compound 100 µM) was 0.201.
Cell Line RERF-LC-KJ has a relative viability (Bicalutamide + Dasatinib; first compound 0.08 µM) of 0.91, a relative viability (Bicalutamide + Dasatinib; first compound 0.253 µM) of 0.814 and a relative viability (Bicalutamide + Dasatinib; first compound 0.8 µM) of 1.04. For the same cell line, the relative viability (Bicalutamide + Dasatinib; first compound 2.53 µM) was 0.694, the relative viability ([1]; first compound 0.08 µM) was 1.24 and the relative viability ([1]; first compound 0.253 µM) was 1.2. The relative viability ([1]; first compound 0.8 µM) was 1.36, the relative viability ([1]; first compound 2.53 µM) was 1.2 and the relative viability ([2]; first compound 1 µM) was 1.09. For the same cell line, the relative viability ([2]; first compound 3.162 µM) was 1.14, the relative viability ([2]; first compound 10 µM) was 1 and the relative viability ([2]; first compound 31.62 µM) was 1.18. It also gave a relative viability ([2]; first compound 100 µM) of 1.29, a relative viability ([3]; first compound 1 µM) of 0.738 and a relative viability ([3]; first compound 3.162 µM) of 0.745. For the same cell line, the relative viability ([3]; first compound 10 µM) was 0.791, the relative viability ([3]; first compound 31.62 µM) was 0.794 and the relative viability ([3]; first compound 100 µM) was 0.72.
For SK-LU-1, the relative viability (Bicalutamide + Dasatinib; first compound 0.08 µM) was 0.175, the relative viability (Bicalutamide + Dasatinib; first compound 0.253 µM) was 0.206 and the relative viability (Bicalutamide + Dasatinib; first compound 0.8 µM) was 0.177. It also gave a relative viability (Bicalutamide + Dasatinib; first compound 2.53 µM) of 0.169, a relative viability ([1]; first compound 0.08 µM) of 0.189 and a relative viability ([1]; first compound 0.253 µM) of 0.188. It also gave a relative viability ([1]; first compound 0.8 µM) of 0.217, a relative viability ([1]; first compound 2.53 µM) of 0.188 and a relative viability ([2]; first compound 1 µM) of 1.44. The relative viability ([2]; first compound 3.162 µM) was 1.01, the relative viability ([2]; first compound 10 µM) was 1.82 and the relative viability ([2]; first compound 31.62 µM) was 0.987. The relative viability ([2]; first compound 100 µM) was 1.27, the relative viability ([3]; first compound 1 µM) was 0.704 and the relative viability ([3]; first compound 3.162 µM) was 0.606. The relative viability ([3]; first compound 10 µM) was 0.56, the relative viability ([3]; first compound 31.62 µM) was 0.597 and the relative viability ([3]; first compound 100 µM) was 0.623.
For SW 1573, the relative viability (Bicalutamide + Dasatinib; first compound 0.08 µM) was 0.525, the relative viability (Bicalutamide + Dasatinib; first compound 0.8 µM) was 0.683 and the relative viability (Bicalutamide + Dasatinib; first compound 2.53 µM) was 0.275. It also gave a relative viability ([1]; first compound 0.08 µM) of 0.506, a relative viability ([1]; first compound 0.253 µM) of 0.213 and a relative viability ([1]; first compound 0.8 µM) of 0.209. It also gave a relative viability ([1]; first compound 2.53 µM) of 0.181, a relative viability ([2]; first compound 1 µM) of 0.935 and a relative viability ([2]; first compound 3.162 µM) of 1.02. The relative viability ([2]; first compound 10 µM) was 1.18, the relative viability ([2]; first compound 31.62 µM) was 1.08 and the relative viability ([2]; first compound 100 µM) was 0.392. For the same cell line, the relative viability ([3]; first compound 1 µM) was 0.498, the relative viability ([3]; first compound 3.162 µM) was 0.574 and the relative viability ([3]; first compound 10 µM) was 0.534. It also gave a relative viability ([3]; first compound 31.62 µM) of 0.304 and a relative viability ([3]; first compound 100 µM) of 0.0598.

— the supplement of paper PMC10307832
